Test results from ChEMBL document CHEMBL4316630, “Benzimidazole-based DGAT1 inhibitors with a [3.1.0] bicyclohexane carboxylic acid moiety” (Bioorg Med Chem Lett, 2019).
pIC50: −log10 of the molar value.

Assays:
Mus musculus [1] = assay: Reduction in lipid excursion in mouse assessed as change in triglyceride level at 10 mg/kg, po measured at 18 hrs post dose by lipid tolerance test; format: functional; design: scale not given: the % may be the effect or the level left
[2] = Stability in rat hepatocytes assessed as epimerization incubated for 2 hrs by UPLC/HRMS analysis; format: ADME, cell-based, Hepatocyte
[3] = Stability in mouse hepatocytes assessed as epimerization incubated for 2 hrs by UPLC/HRMS analysis; format: ADME, cell-based, Hepatocyte
[4] = Stability in human hepatocytes assessed as epimerization incubated for 2 hrs by UPLC/HRMS analysis; format: ADME, cell-based, Hepatocyte
Homo sapiens = species: Homo sapiens; assay: Selectivity index, ratio of IC50 for human ACAT1 to IC50 for human DGAT1
[5] = Drug metabolism in mouse assessed as epimerization by measuring plasma concentration of 1s,4s)-4-(1-(5-(5-(trifluoromethyl)-1H-benzo[d]imidazol-2-yl)pyridin-2-yl)piperidin-4-yloxy)cyclohexanecarboxylic acid at 10 mg/kg, po after 3 hrs; format: ADME, organism-based; details: in vivo
[6] = Plasma concentration in mouse at 10 mg/kg, po; format: ADME, organism-based; details: in vivo
[7] = Plasma concentration in mouse at 10 mg/kg, po after 3 hrs; format: ADME, organism-based
[8] = Lipophilicity, log D of the compound by HPLC analysis; format: physicochemical
[9] = target: T1, Sterol O-acyltransferase 1 (Homo sapiens, UniProt P35610); assay: Inhibition of human ACAT1
T1 sequence (P35610 whole entry): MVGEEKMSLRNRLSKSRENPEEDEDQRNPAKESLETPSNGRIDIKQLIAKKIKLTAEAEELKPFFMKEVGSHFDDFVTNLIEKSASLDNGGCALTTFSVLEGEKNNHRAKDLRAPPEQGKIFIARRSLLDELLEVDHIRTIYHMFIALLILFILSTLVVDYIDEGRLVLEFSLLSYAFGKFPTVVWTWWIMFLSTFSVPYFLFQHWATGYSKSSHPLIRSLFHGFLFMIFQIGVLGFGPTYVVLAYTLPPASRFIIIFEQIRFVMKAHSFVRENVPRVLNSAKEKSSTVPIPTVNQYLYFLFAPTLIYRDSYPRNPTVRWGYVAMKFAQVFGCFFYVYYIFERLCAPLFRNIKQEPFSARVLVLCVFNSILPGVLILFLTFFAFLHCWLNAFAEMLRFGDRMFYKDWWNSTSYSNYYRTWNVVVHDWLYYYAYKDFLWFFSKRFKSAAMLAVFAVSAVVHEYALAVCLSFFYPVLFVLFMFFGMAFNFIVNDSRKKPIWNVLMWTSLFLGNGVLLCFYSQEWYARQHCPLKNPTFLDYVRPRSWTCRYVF

[10] = target: T2, Diacylglycerol O-acyltransferase 1 (Mus musculus, UniProt Q9Z2A7); assay: Inhibition of mouse DGAT1
T2 sequence (Q9Z2A7 whole entry): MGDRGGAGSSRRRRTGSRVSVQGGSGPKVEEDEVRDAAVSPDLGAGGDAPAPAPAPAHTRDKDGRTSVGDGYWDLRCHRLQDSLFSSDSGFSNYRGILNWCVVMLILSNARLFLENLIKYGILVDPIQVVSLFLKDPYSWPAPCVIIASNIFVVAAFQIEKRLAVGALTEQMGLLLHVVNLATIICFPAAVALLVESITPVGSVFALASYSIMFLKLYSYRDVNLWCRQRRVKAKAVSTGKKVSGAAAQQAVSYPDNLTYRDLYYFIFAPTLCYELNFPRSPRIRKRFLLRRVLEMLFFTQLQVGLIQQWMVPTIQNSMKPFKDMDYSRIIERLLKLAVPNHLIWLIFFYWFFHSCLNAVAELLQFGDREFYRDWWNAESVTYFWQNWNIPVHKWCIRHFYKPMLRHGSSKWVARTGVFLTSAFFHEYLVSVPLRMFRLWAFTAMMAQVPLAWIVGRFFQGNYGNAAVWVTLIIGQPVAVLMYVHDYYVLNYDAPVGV

Mus musculus [11] = assay: Reduction in lipid excursion in mouse assessed as change in triglyceride level at 3 mg/kg, po measured at 18 hrs post dose by lipid tolerance test; format: functional; design: scale not given: the % may be the effect or the level left
[12] = target: T3, Diacylglycerol O-acyltransferase 1 (Homo sapiens, UniProt O75907); assay: Inhibition of human DGAT1
T3 sequence (O75907 whole entry): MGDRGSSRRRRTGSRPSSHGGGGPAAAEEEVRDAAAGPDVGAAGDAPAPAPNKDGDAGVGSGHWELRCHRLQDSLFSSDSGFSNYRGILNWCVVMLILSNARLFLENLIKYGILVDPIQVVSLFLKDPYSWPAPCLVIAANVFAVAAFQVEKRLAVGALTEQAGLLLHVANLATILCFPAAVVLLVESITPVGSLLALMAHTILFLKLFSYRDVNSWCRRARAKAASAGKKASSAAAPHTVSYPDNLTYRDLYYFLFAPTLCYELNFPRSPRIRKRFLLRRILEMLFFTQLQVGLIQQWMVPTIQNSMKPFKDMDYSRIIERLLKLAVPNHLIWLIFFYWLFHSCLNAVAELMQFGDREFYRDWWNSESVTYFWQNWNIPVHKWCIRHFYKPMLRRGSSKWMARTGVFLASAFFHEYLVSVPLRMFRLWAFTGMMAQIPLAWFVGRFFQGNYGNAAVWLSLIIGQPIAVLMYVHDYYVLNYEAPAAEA

[13] = Plasma concentration in mouse at 3 mg/kg, po; format: ADME, organism-based; details: in vivo
[14] = Drug metabolism in mouse hepatocytes assessed as glucuronide formation incubated for 2 hrs by UPLC/HRMS analysis; format: ADME, cell-based, Hepatocyte
[15] = Drug metabolism in human hepatocytes assessed as glucuronide formation incubated for 2 hrs by UPLC/HRMS analysis; format: ADME, cell-based, Hepatocyte
[16] = Drug metabolism in rat hepatocytes assessed as glucuronide formation incubated for 2 hrs by UPLC/HRMS analysis; format: ADME, cell-based, Hepatocyte
[17] = Plasma concentration in mouse at 10 mg/kg, po after 4 hrs; format: ADME, organism-based

Row | Compound | Stability [2] | Stability [3] | Stability [4] | Ratio IC50 (Homo sapiens) | concentration [5] | concentration [6] | concentration at 3 h [7] | logD [8] | pIC50 [9] | pIC50 [10] | pIC50 [12] | concentration [13] | Drug metabolism [14] | Drug metabolism [15] | Drug metabolism [16] | concentration at 4 h [17] | Activity (Mus musculus [1]) | Activity (Mus musculus [11])
1 | O=C(O)[C@H]1CC[C@H](OC2CCN(c3ccc(-c4nc5cc(C(F)(F)F)ccc5[nH]4)cn3)CC2)CC1 | Unstable | Unstable | Unstable | > 2500 | 54 nM | 17 nM | 324 nM | 1.68 | – | – | – | – | – | – | – | – | -89% | –
2 | O=C(O)[C@@H]1[C@@H]2C[C@H](OC3CCN(c4ccc(-c5nc6cc(C(F)(F)F)ccc6[nH]5)cn4)CC3)C[C@@H]21 | Stable | Stable | Stable | > 900 | – | – | – | 1.88 | < 5.00 | 7.13 | – | 23 nM | Metabolite_Detected | Metabolite_Detected | Metabolite_Detected | – | – | 3%
3 | O=C(O)[C@H]1[C@@H]2C[C@H](OC3CCN(c4ccc(-c5nc6cc(C(F)(F)F)ccc6[nH]5)cn4)CC3)C[C@@H]21 | Stable | Stable | Stable | 1950 | – | – | – | 1.9 | 5.41 | 8.37 | – | 27 nM | Metabolite_Detected | Metabolite_Detected | Metabolite_Detected | 151 nM | – | -70%
4 | O=C(O)[C@@H]1[C@@H]2C[C@@H](OC3CCN(c4ccc(-c5nc6cc(C(F)(F)F)ccc6[nH]5)cn4)CC3)C[C@@H]21 | – | – | – | > 1690 | – | – | – | 1.73 | < 5.00 | 7.32 | 8.23 | 51 nM | – | – | – | – | – | -30%

Continued, in another order:

Row | Stability [2] | Stability [3] | Stability [4] | Ratio IC50 (Homo sapiens) | concentration [5] | concentration [6] | concentration at 3 h [7] | logD [8] | pIC50 [9] | pIC50 [10] | pIC50 [12] | concentration [13] | Drug metabolism [14] | Drug metabolism [15] | Drug metabolism [16] | concentration at 4 h [17] | Compound | Activity (Mus musculus [1]) | Activity (Mus musculus [11])
5 | – | – | – | > 2600 | – | – | – | 1.87 | < 5.00 | 7.66 | 8.42 | 25 nM | – | – | – | – | O=C(O)[C@H]1[C@@H]2C[C@@H](OC3CCN(c4ccc(-c5nc6cc(C(F)(F)F)ccc6[nH]5)cn4)CC3)C[C@@H]21 | – | -30%
6 | Unstable | Unstable | Unstable | > 4000 | – | 26 nM | – | 1.64 | – | – | – | – | – | – | – | – | O=C(O)[C@H]1CC[C@@H](OC2CCN(c3ccc(-c4nc5cc(C(F)(F)F)ccc5[nH]4)cn3)CC2)CC1 | -75% | –
